Assay results taken from US20250289786A1, “CHLORINATED MONOCARBONYL CURCUMIN COMPOUNDS, PREPARATION METHOD, AND APPLICATION” (Southwest Medical University, priority 2024, published 2025).

Key:
[1] = Solubility detection of CAK01-CAK07; format: physicochemical
Description: The chlorinated monocarbonyl curcumin compounds CAK01-CAK07 prepared under the conditions of Example 1 were taken for nuclear magnetic resonance, mass spectrometry, solubility, and melting point detection.

[2] = ABTS free radical capture ability; format: biochemical; details: 20 min reaction in the dark
Protocol: 66.2 mg of K2S2O8 was weighed and placed in a 100 mL volumetric flask, pure water was added to the scale line to prepare a 2.45 mmol/L K2S2O8 solution. 192 mg of ABTS was accurately weighed and placed in a 25 mL volumetric flask, and the newly prepared K2S2O8 solution was added for dissolving and constant volume dilution, after standing in the dark for 20 h, the ABTS mother liquor was obtained. Before use, to make the measured value more accurate, the ABTS mother liquor needs to be diluted with a PBS solution of pH7.4 until the absorbance range of the ABTS working solution at 734 nm is 0.70±0.02.
Drug concentration screening: To avoid the complete removal of free radicals by excessive drug concentration and the inability to compare the ability to capture ABTS free radicals, a preliminary screening of drug concentration is required before the formal test. A gradient concentration of compound solution was prepared, and a gradient concentration of Vit C solution was prepared as a positive control. A total of 450 μL of ABTS working solution was accurately absorbed into a 1.5 mL EP tube, and 150 μL of the gradient solution of each group of drugs was added, after 20 min of reaction in the dark, 150 μL of the reaction solution was taken and placed in a 96-well plate, the absorbance was measured by a microplate reader. Three duplicate wells were set for each concentration, and the drug concentration with absorbance between 0.2-0.7 was selected for subsequent determination.
Determination operation: After the drug concentration screening was completed, 7 concentration gradient groups were set within this concentration range. A total of 450 μL of ABTS working solution was accurately absorbed into a 1.5 mL EP tube, and 150 μL of the gradient solution of each group of drugs was added. After 20 min of reaction in the dark, 150 μL of the reaction solution was taken and placed in a 96-well plate, the absorbance was measured by a microplate reader. Three duplicate wells were set for each concentration, the positive control group was a gradient solution of Vit C, and the blank control group was an equal volume of anhydrous ethanol.

[3] = tested on: PC12 cells; assay: MTT toxicity (safety evaluation) on PC12 nerve cells; format: cell-based; details: for cytotoxicity to PC12 cells: 3.75-60 μM, 24 h and 48 h, in words
Protocol: The toxicity of each drug to PC12 cells was determined by MTT assay. The principle of the MTT colorimetric method: there is succinate dehydrogenase in the mitochondria of living cells, which can make exogenous MTT become blue-purple crystal formazan insoluble in water, this phenomenon cannot be observed in dead cells. The blue-purple crystal formazan can be dissolved by DMSO, and the absorbance value is measured by a microplate reader at a wavelength of 490 nm, which in turn reflects the number of living cells. […] The operation method is as follows:
The cells were resuscitated with DMEM high glucose medium containing 10% fetal bovine serum and cultured in a 5% CO2 cell incubator at 37° C., when the cells grew to the logarithmic growth phase, they were inoculated into a 96-well plate and cultured for 24 hours, each well was added with 100 μL of each compound solution at the corresponding gradient concentration (60, 30, 15, 7.5, 3.75 μM), after incubation in the incubator for 24 h or 48 h, 20 μL of MTT was added to continue incubation for 4 h, the supernatant was discarded and 150 μL of DMSO was added to dissolve the blue-purple crystals, after shaking for 10 min, the cell viability was detected by a microplate reader, and classified according to the cytotoxicity standard. The relevant calculation formula is as follows: […]

[4] = tested on: PC12 cells; assay: Inhibition of H2O2-induced oxidative damage in PC12 cells; format: cell-based, rat; details: for effect on survival of H2O2-damaged PC12 cells: 24 h, in words
Protocol: After 24 hours of incubation in the incubator, the relative proliferation rates of the cells were calculated according to the method under Section 2.1.

[5] = tested on: PC12 cells; assay: Inhibition of corticosterone (CORT)-induced PC12 cell damage; format: cell-based, rat; details: 3.75-60 μM drug with 514.6 μM CORT, 24 h, in words

| Structure (SMILES) | solubility [1] [mg/100 g] | IC50 values of ABTS captured [2] [µg/mL] | cytotoxicity to PC12 cells [3] | Rank (cytotoxicity standard) 24 h ([3]; PC12, 3.75 μM) | Relative growth rate (%) 24 h ([3]; PC12, 3.75 μM) [%] | Rank (cytotoxicity standard) 48 h ([3]; PC12, 3.75 μM) | Relative growth rate (%) 48 h ([3]; PC12, 3.75 μM) [%] | Rank (cytotoxicity standard) 24 h ([3]; PC12, 7.5 μM) | Relative growth rate (%) 24 h ([3]; PC12, 7.5 μM) [%] | Rank (cytotoxicity standard) 48 h ([3]; PC12, 7.5 μM) | Relative growth rate (%) 48 h ([3]; PC12, 7.5 μM) [%] | Rank (cytotoxicity standard) 24 h ([3]; PC12, 15 μM) | Relative growth rate (%) 24 h ([3]; PC12, 15 μM) [%] | Rank (cytotoxicity standard) 48 h ([3]; PC12, 15 μM) | Relative growth rate (%) 48 h ([3]; PC12, 15 μM) [%] | Rank (cytotoxicity standard) 24 h ([3]; PC12, 30 μM) | Relative growth rate (%) 24 h ([3]; PC12, 30 μM) [%] | Rank (cytotoxicity standard) 48 h ([3]; PC12, 30 μM) | Relative growth rate (%) 48 h ([3]; PC12, 30 μM) [%] | Rank (cytotoxicity standard) 24 h ([3]; PC12, 60 μM) | other results |
| --- | --- | --- | --- | --- | --- | --- | --- | --- | --- | --- | --- | --- | --- | --- | --- | --- | --- | --- | --- | --- | --- |
| O=C1/C(=C/c2cc(Cl)c(O)c(Cl)c2)CNC/C1=C\c1cc(Cl)c(O)c(Cl)c1 [CAK01, 3,5-bis ((E)-3,5-dichloro-4-hydroxybenzylidene) piperidin-4-one] | 0.17 | 79.62 | no significant cytotoxicity | 0 | 104.22 ± 1.99 | 1 | 99.22 ± 1.65 | 0 | 101.17 ± 2.97 | 0 | 100.73 ± 3.19 | 1 | 99.46 ± 2.16 | 1 | 99.33 ± 1.79 | 0 | 101.62 ± 3.23 | 0 | 100.73 ± 2.88 | 0 | Relative growth rate (%) 24 h ([3]; PC12, 60 μM): 104.04 ± 1.43%; Rank (cytotoxicity standard) 48 h ([3]; PC12, 60 μM): 1; Relative growth rate (%) 48 h ([3]; PC12, 60 μM): 85.41 ± 3.45%; effect on survival of H2O2-damaged PC12 cells ([4]; drug concentration below 30 μM): increased the survival rate of cells in a concentration-dependent manner; effect on viability of CORT-damaged PC12 cells [5]: did not show the potential to restore cell viability |
| COc1cc(/C=C2\CN(C(C)C)C/C(=C\c3cc(Cl)c(O)c(OC)c3)C2=O)cc(Cl)c1O [CAK05, 3,5-bis ((E)-3-chloro-4-hydroxy-5-methoxybenzylidene)-1-isopropylpiperidin-4-one] | 0.14 | 369.1 | a great influence on the activity of PC12 cells | 1 | 89.59 ± 2.85 | 2 | 61.38±0.91 | 2 | 68.98±2.27 | 2 | 51.45 ± 1.44 | 2 | 62.32 ± 3.54 | 3 | 22.26 ± 1.14 | 2 | 56.50 ± 1.99 | 4 | 15.43 ± 0.32 | 3 | Relative growth rate (%) 24 h ([3]; PC12, 60 μM): 41.84 ± 0.40%; Rank (cytotoxicity standard) 48 h ([3]; PC12, 60 μM): 4; Relative growth rate (%) 48 h ([3]; PC12, 60 μM): 11.06 ± 0.87%; effect on survival of H2O2-damaged PC12 cells ([4]; 3.75-60 μM drug): failed to show the potential to restore cell viability; effect on viability of CORT-damaged PC12 cells [5]: did not show the potential to restore cell viability |
| O=C1O[C@H]([C@@H](O)CO)C(O)=C1O [Vit C, ascorbic acid, reference compound] | – | 54.54 | – | – | – | – | – | – | – | – | – | – | – | – | – | – | – | – | – | – | – |
| CN1C/C(=C\c2cc(Cl)c(O)c(Cl)c2)C(=O)/C(=C/c2cc(Cl)c(O)c(Cl)c2)C1 [CAK02, 3,5-bis ((E)-3,5-dichloro-4-hydroxybenzylidene)-1-methylpiperidin-4-one] | 0.09 | 223.7 | no significant cytotoxicity | 0 | 102.93 ± 1.13 | 1 | 98.35 ± 1.84 | 1 | 99.40 ± 4.11 | 0 | 100.22 ± 3.73 | 1 | 95.08 ± 10.06 | 1 | 95.22 ± 1.86 | 1 | 99.48 ± 1.91 | 1 | 97.59 ± 8.36 | 1 | Relative growth rate (%) 24 h ([3]; PC12, 60 μM): 88.18 ± 0.93%; Rank (cytotoxicity standard) 48 h ([3]; PC12, 60 μM): 1; Relative growth rate (%) 48 h ([3]; PC12, 60 μM): 98.48 ± 2.00%; effect on survival of H2O2-damaged PC12 cells ([4]; drug concentration below 30 μM): increased the survival rate of cells in a concentration-dependent manner; effect on viability of CORT-damaged PC12 cells [5]: did not show the potential to restore cell viability |
| CC(C)N1C/C(=C\c2cc(Cl)c(O)c(Cl)c2)C(=O)/C(=C/c2cc(Cl)c(O)c(Cl)c2)C1 [CAK04, 3,5-bis ((E)-3,5-dichloro-4-hydroxybenzylidene)-1-isopropylpiperidin-4-one] | 0.04 | 57.78 | no significant cytotoxicity | 1 | 98.54 ± 5.42 | 0 | 100.97 ± 3.25 | 1 | 99.95 ± 5.76 | 0 | 100.45 ± 2.96 | 1 | 99.06 ± 5.73 | 1 | 99.75 ± 1.57 | 1 | 99.66 ± 2.34 | 1 | 98.02 ± 3.00 | 0 | Relative growth rate (%) 24 h ([3]; PC12, 60 μM): 101.64 ± 3.95%; Rank (cytotoxicity standard) 48 h ([3]; PC12, 60 μM): 0; Relative growth rate (%) 48 h ([3]; PC12, 60 μM): 100.17 ± 2.92%; relative proliferation rate of cells ([4]; 30 μM drug with 585.8 μM H2O2, 24 h): 52.12±0.88%; effect on survival of H2O2-damaged PC12 cells ([4]; drug concentration below 30 μM): increased the survival rate of cells in a concentration-dependent manner; effect on viability of CORT-damaged PC12 cells [5]: did not show the potential to restore cell viability |
| COc1cc(/C=C2\CN(C)C/C(=C\c3cc(Cl)c(O)c(OC)c3)C2=O)cc(Cl)c1O [CAK07, 3,5-bis ((E)-3-chloro-4-hydroxy-5-methoxybenzylidene)-1-methylpiperidin-4-one] | 34.77 | 197.3 | high | 1 | 99.04 ± 1.89 | 1 | 82.45 ± 2.34 | 1 | 76.49 ± 0.75 | 3 | 46.41±0.69 | 2 | 60.78±0.55 | 3 | 30.99 ± 0.02 | 2 | 53.24 ± 0.51 | 3 | 30.46 ± 0.54 | 3 | Relative growth rate (%) 24 h ([3]; PC12, 60 μM): 49.53 ± 0.31%; Rank (cytotoxicity standard) 48 h ([3]; PC12, 60 μM): 4; Relative growth rate (%) 48 h ([3]; PC12, 60 μM): 24.20 ± 0.74%; effect on survival of H2O2-damaged PC12 cells ([4]; 7.5 μM drug): a certain cytoprotective effect; effect on viability of CORT-damaged PC12 cells [5]: did not show the potential to restore cell viability |
